Laboratory results as given in PubChem BioAssay (NCI).
Values joined by “and” are separate entries in the source; they are usually repeats but may differ in a detail not shown here. Equal entries are not always repeated.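 Results reflect a 48-hour exposure of cells in 96-well plates to compound at five concentrations. The concentration for 50% growth inhibition is given as GI50. TGI is the concentration that stops growth completely.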

Experiments:
Assay in all cases: NCI tumour cell line growth inhibition, 48 h
SF-539 CNS = tested on: SF-539 CNS
BT-549 breast = tested on: BT-549 breast
OVCAR-4 ovarian = tested on: OVCAR-4 ovarian
NCI-H522 lung = tested on: NCI-H522 lung
CCRF-CEM leukemia = tested on: CCRF-CEM leukemia
SNB-19 CNS = tested on: SNB-19 CNS
MDA-MB-231 breast = tested on: MDA-MB-231 breast
HCT-116 colon = tested on: HCT-116 colon
HS 578T breast = tested on: HS 578T breast
K-562 leukemia = tested on: K-562 leukemia

Structure (SMILES)	TGI (SF-539 CNS)	TGI (BT-549 breast)	TGI (OVCAR-4 ovarian)	TGI (NCI-H522 lung)	TGI (CCRF-CEM leukemia)	TGI (SNB-19 CNS)	TGI (MDA-MB-231 breast)	TGI (HCT-116 colon)	TGI (HS 578T breast)	TGI (K-562 leukemia)	GI50 (SF-539 CNS)	GI50 (BT-549 breast)	GI50 (OVCAR-4 ovarian)	GI50 (NCI-H522 lung)	GI50 (CCRF-CEM leukemia)	GI50 (K-562 leukemia)	GI50 (SNB-19 CNS)	GI50 (MDA-MB-231 breast)	GI50 (HCT-116 colon)	GI50 (HS 578T breast)
COc1ccc(C(=O)C(CC2C(=O)CC(C)(C)C(C(=O)C(=O)Nc3c(C)cccc3C)C2=O)c2ccc(OC)cc2)cc1 (stereo not given)	> 100 µM	> 100 µM	> 100 µM	> 100 µM	> 100 µM	> 100 µM	> 100 µM	> 100 µM	> 100 µM	–	–	–	–	–	–	–	–	–	–	–
COc1ccc(OC)c(-c2cc(C(=O)O)c3cc4ccccc4cc3n2)c1	> 100 µM	> 100 µM	> 100 µM	> 100 µM	–	> 100 µM	> 100 µM	> 100 µM	> 100 µM	> 100 µM	–	–	–	–	–	–	–	–	–	–
O=C1CCCC(=O)C1C(=O)c1ccc(C(F)(F)F)cc1[N+](=O)[O-]	> 100 µM	> 100 µM	> 100 µM	> 100 µM	> 100 µM	> 100 µM	> 100 µM	> 100 µM	> 100 µM	> 100 µM	> 100 µM	> 100 µM	> 100 µM	> 100 µM	> 100 µM	> 100 µM	> 100 µM	> 100 µM	> 100 µM	> 100 µM
CN1CCN(CCCOc2ccc3nc(Nc4ccc(C(F)(F)F)c(Cl)c4)ccc3c2)CC1	–	3.53 µM	4.59 µM	3.74 µM	3.64 µM	3.6 µM	2.75 µM	2.94 µM	6.1 µM	2.07 µM	–	1.84 µM	1.71 µM	2.02 µM	1.57 µM	0.595 µM	1.74 µM	1.13 µM	1.46 µM	1.82 µM
O=C1C(Cl)=C(Nc2ccccn2)C(=O)c2ccccc21	4.75 µM	4.58 µM	–	3.69 µM	12.5 µM	16.3 µM	16.6 µM	4.1 µM	> 100 µM	5.42 µM	2.07 µM	2.09 µM	–	1.89 µM	3.79 µM	1.92 µM	4.53 µM	3.23 µM	1.95 µM	3.65 µM
CC(=O)OC1CC(C)c2c(Cl)ncnc21 (stereo not given)	> 100 µM	> 100 µM	> 100 µM	41.7 µM	> 100 µM	> 100 µM	> 100 µM	> 100 µM	> 100 µM	> 100 µM	> 100 µM	> 100 µM	> 100 µM	18 µM	50.1 µM	> 100 µM	> 100 µM	> 100 µM	> 100 µM	> 100 µM
COc1cc(CCNc2nc3cc(N)cc(N)c3nc2-c2ccccc2)cc(OC)c1	4.14 µM	5.47 µM	2.54 µM	–	6.48 µM	18.6 µM	4.55 µM	–	5.85 µM	4.25 µM	2.19 µM	2.48 µM	1.21 µM	–	1.36 µM	1.73 µM	5.92 µM	1.57 µM	–	2.43 µM
Cc1ccc(C(CC(=O)c2ccccc2)C(C(=O)c2ccccc2)C(c2ccc(C)cc2)C2C(=O)NC(=S)NC2=O)cc1 (stereo not given)	> 50 µM	> 50 µM	> 50 µM	30.2 µM	> 50 µM	> 50 µM	> 50 µM	> 50 µM	> 50 µM	> 50 µM	28.9 µM	31.7 µM	> 50 µM	7.87 µM	15.8 µM	26.7 µM	25.1 µM	9.5 µM	19 µM	21.7 µM
COc1ccc(CCN2COc3ccc4ccc(=O)oc4c3C2)cc1OC	> 100 µM	> 100 µM	> 100 µM	> 100 µM	54.8 µM	> 100 µM	> 100 µM	> 100 µM	> 100 µM	> 100 µM	–	–	–	–	–	–	–	–	–	–
C=CCCC(O)c1ccc(CCCCCCCCCCC)o1 (stereo not given)	34.3 µM	30.7 µM	–	32.8 µM	40 µM	35 µM	26.2 µM	32.2 µM	30.2 µM	> 100 µM	18.9 µM	16.7 µM	–	17 µM	19.3 µM	38.6 µM	18.8 µM	12.6 µM	18 µM	12.6 µM
CN1CCN(CCCN2c3ccccc3Sc3ccc(C(F)(F)F)cc32)CC1	4.12 µM and 18.6 µM and 20.1 µM	14.5 µM and 29.3 µM and 28.1 µM	12.5 µM and 21.6 µM and 26.6 µM	3.5 µM and 17.8 µM and 26.1 µM	6 µM and 6.52 µM and 26.5 µM	4.45 µM and 26.8 µM and 29.3 µM	3.87 µM and 19.9 µM and 5.08 µM	3.26 µM and 17.5 µM and 20.3 µM	8.41 µM and 14.7 µM and 20.6 µM	4.27 µM and 28.6 µM	1.94 µM	3.71 µM	3.22 µM	1.87 µM and 4.05 µM and 13 µM	2.35 µM and 2.17 µM and 8.25 µM	2.13 µM and 2.01 µM and 4.6 µM	1.86 µM	1.75 µM and 6.11 µM and 1.7 µM	1.78 µM	2.22 µM
COc1cc(C2C(C(=O)OCc3ccccc3)=C(C)NC(C)=C2C(=O)OCc2ccccc2)cc(OC)c1OC	> 100 µM	> 100 µM	> 100 µM	> 100 µM	–	> 100 µM	> 100 µM	> 100 µM	> 100 µM	–	3.99 µM	3.3 µM	3.39 µM	3.57 µM	–	–	5.73 µM	2.16 µM	2.54 µM	5.61 µM
O=C(NCc1cccs1)OC1CC2CCC1C2 (stereo not given)	> 100 µM	> 100 µM	> 100 µM	> 100 µM	> 100 µM	> 100 µM	> 100 µM	> 100 µM	> 100 µM	> 100 µM	–	–	–	–	–	–	–	–	–	–
C=C(CN(C)C)C(=O)c1ccc(OC)cc1	9.56 µM	18.1 µM	22.1 µM	–	1.08 µM	40.3 µM	17.3 µM	12.8 µM	> 87 µM	4.39 µM	–	–	–	–	–	–	–	–	–	–
O=[N+]([O-])c1ccc(NN=C2c3ccccc3Cc3ccccc32)c([N+](=O)[O-])c1	> 100 µM	> 100 µM	> 100 µM	7.97 µM	18.2 µM	> 100 µM	> 100 µM	> 100 µM	> 80.4 µM	> 100 µM	–	–	–	–	–	–	–	–	–	–
CCc1cccc(CC)c1NC(=O)c1ccn2c1CCc1cnc(Nc3ccc(N4CCN(C)CC4)cc3OC)nc1-2	3.19 µM	6.63 µM	18.1 µM	4.32 µM	6.6 µM	15.2 µM	8.29 µM	–	11 µM	–	1.1 µM	2.23 µM	3.77 µM	1.81 µM	0.213 µM	–	3.57 µM	2.11 µM	–	2.24 µM
CC(=O)Nc1ccc(S(=O)(=O)c2ccc(NC(C)=O)cc2)cc1	–	> 100 µM	> 100 µM	> 100 µM	> 100 µM	–	> 100 µM	> 100 µM	> 100 µM	> 100 µM	–	> 100 µM	> 100 µM	> 100 µM	> 100 µM	> 100 µM	–	> 100 µM	> 100 µM	> 100 µM
[O]=[W](=[O])([OH])[OH]	> 100 µM	> 100 µM	> 100 µM	> 100 µM	> 100 µM	> 100 µM	> 100 µM	> 100 µM	–	> 100 µM	> 100 µM	> 100 µM	> 100 µM	> 100 µM	> 100 µM	> 100 µM	> 100 µM	> 100 µM	> 100 µM	–
CCCN(CCC)c1ccc(/C=N/NC(=O)c2cccnc2)cc1	61.4 µM	> 100 µM	> 100 µM	46.8 µM	> 100 µM	> 100 µM	–	> 100 µM	87.1 µM	> 100 µM	18.8 µM	30.7 µM	35.4 µM	16.6 µM	37.1 µM	8.02 µM	53.8 µM	–	23.5 µM	22 µM
Nc1ncnc2c1c(C(=O)NO)cn2C1OC(CO)C(O)C1O (stereo not given)	3.01 µM	19.2 µM	5.61 µM	4.62 µM	> 100 µM	> 100 µM	5.32 µM	> 23.8 µM	3.54 µM	> 100 µM	0.551 µM	0.426 µM	0.213 µM	0.435 µM	0.235 µM	0.79 µM	0.847 µM	0.464 µM	0.175 µM	0.331 µM
O=C1c2ccccc2CCC1(Br)Br	3.74 µM	4.96 µM	2.97 µM	0.793 µM	2.01 µM	23.2 µM	4.72 µM	2.23 µM	> 26.9 µM	2.02 µM	1.88 µM	2 µM	1.48 µM	0.293 µM	0.365 µM	0.357 µM	10.4 µM	1.97 µM	0.888 µM	4.08 µM
O=C(Nc1ccc(Cl)cc1F)c1cc(Cl)ccc1O	4.58 µM	2.04 µM	> 100 µM	–	> 44.9 µM	> 100 µM	3.46 µM	2.24 µM	3.65 µM	> 59.2 µM	0.432 µM	0.379 µM	0.34 µM	0.337 µM	1.62 µM	0.361 µM	0.413 µM	0.554 µM	0.431 µM	0.341 µM
Cc1ccc(C)c(N2C(=O)C(=O)c3c(C)ccc(C)c32)c1	36.4 µM	42.2 µM	> 100 µM	38.6 µM	–	> 100 µM	49.8 µM	32 µM	63.4 µM	48.5 µM	–	–	–	–	–	–	–	–	–	–
C(=C\c1nc2ccccc2s1)/c1ccc(N2CCOCC2)s1	> 100 µM	> 100 µM	> 100 µM	> 100 µM	> 100 µM	> 100 µM	> 100 µM	> 100 µM	> 100 µM	> 100 µM	53.1 µM	34.6 µM	33.7 µM	49.2 µM	55.7 µM	> 100 µM	51.4 µM	> 100 µM	59.9 µM	37 µM
Cc1nn(-c2ccccc2)c(C)c1/C=N/N1CCN(Cc2ccccc2)CC1	> 100 µM	> 100 µM	–	> 100 µM	–	> 100 µM	95.2 µM	> 100 µM	> 100 µM	> 100 µM	76.4 µM	48.2 µM	–	78.5 µM	–	31.2 µM	> 100 µM	22.6 µM	28 µM	> 100 µM
Cc1[nH]c2ccccc2c1C1=CC(=O)C=CC1=O	28.3 µM	24.4 µM	15.3 µM	3.28 µM	–	41.6 µM	29.2 µM	24.8 µM	53.3 µM	–	14.3 µM	11.1 µM	4.2 µM	1.66 µM	–	–	16.6 µM	12.9 µM	10.5 µM	8.86 µM
O=C(OC(CNc1c(C(=O)c2ccccc2)c(=O)n(Cc2ccccc2)c(=O)n1Cc1ccccc1)CN1CCCCC1)c1ccccc1 (stereo not given)	42.2 µM	82.9 µM	–	40.7 µM	40 µM	83.5 µM	32.4 µM	28.1 µM	> 100 µM	31.3 µM	21.7 µM	25.5 µM	–	21.1 µM	16 µM	14.9 µM	30.4 µM	17.6 µM	14.9 µM	42 µM
N#C/C(=C\c1ccc([N+](=O)[O-])s1)c1nc2cc(Br)ccc2s1	0.638 µM	0.815 µM	–	0.539 µM	> 100 µM	> 100 µM	0.43 µM	0.388 µM	9.28 µM	> 40.6 µM	0.236 µM	0.165 µM	–	0.206 µM	0.161 µM	0.0561 µM	0.369 µM	0.179 µM	0.0713 µM	0.804 µM
CCCCC/C=C\C/C=C/CCCCCCCCNC(=O)Nc1ccc([N+](=O)[O-])cc1	> 100 µM	65.3 µM	> 100 µM	> 100 µM	> 100 µM	> 100 µM	> 100 µM	35.6 µM	–	–	41.4 µM	28.2 µM	13.5 µM	11.5 µM	4.59 µM	–	9.07 µM	13.9 µM	4.17 µM	–
N=C(N)c1ccc(-c2ccc(-c3ccc(Cl)c(Cl)c3)o2)nc1	3.04 µM	3.15 µM	–	4.36 µM	–	3.7 µM	3.38 µM	–	4.36 µM	–	1.63 µM	1.61 µM	–	1.86 µM	–	–	1.84 µM	1.64 µM	–	1.89 µM
